# pKi: −log10 of the molar value. Where two headings read alike, the source gives them in different places.
# Tests used:
# ENPP-1 ECD = ENPP-1 ECD (Homo sapiens (Human), UniProt P22413); experiment: Assay 2: inhibition of ENPP1 hydrolysis of 2′,3′-cGAMP (AMP-Glo, […] enzyme); conditions: for Ki: inhibition of ENPP1 hydrolysis of 2′,3′-cGAMP, no unit in Table 18 (Table 17 legend for this assay uses nM); for pKi: ENPP1 hydrolysis of 2′,3′-cGAMP, AMP-Glo, […] ENPP-1, 24 μM cGAMP
# Procedure: Assay 2: Compared to the conditions in Assay 1, this assay has a larger dynamic range and ensures the system is under steady-state conditions by reducing the enzyme concentration in the assay.
# Test compounds were plated in a 3× dilution scheme in a 384 well plate. […] AMP Detection solution (10 μL) was added to each well, the plate centrifuged and incubated for 60 min.
# [1] = target: ENPP1 on MDA-MB-231 cells (Homo sapiens (Human), UniProt P22413); experiment: Assay 3: inhibition of ENPP1 hydrolysis of AMP p-nitrophenyl ester on MDA-MB-231 cells
# Chain of ENPP1 on MDA-MB-231 cells (P22413 whole entry): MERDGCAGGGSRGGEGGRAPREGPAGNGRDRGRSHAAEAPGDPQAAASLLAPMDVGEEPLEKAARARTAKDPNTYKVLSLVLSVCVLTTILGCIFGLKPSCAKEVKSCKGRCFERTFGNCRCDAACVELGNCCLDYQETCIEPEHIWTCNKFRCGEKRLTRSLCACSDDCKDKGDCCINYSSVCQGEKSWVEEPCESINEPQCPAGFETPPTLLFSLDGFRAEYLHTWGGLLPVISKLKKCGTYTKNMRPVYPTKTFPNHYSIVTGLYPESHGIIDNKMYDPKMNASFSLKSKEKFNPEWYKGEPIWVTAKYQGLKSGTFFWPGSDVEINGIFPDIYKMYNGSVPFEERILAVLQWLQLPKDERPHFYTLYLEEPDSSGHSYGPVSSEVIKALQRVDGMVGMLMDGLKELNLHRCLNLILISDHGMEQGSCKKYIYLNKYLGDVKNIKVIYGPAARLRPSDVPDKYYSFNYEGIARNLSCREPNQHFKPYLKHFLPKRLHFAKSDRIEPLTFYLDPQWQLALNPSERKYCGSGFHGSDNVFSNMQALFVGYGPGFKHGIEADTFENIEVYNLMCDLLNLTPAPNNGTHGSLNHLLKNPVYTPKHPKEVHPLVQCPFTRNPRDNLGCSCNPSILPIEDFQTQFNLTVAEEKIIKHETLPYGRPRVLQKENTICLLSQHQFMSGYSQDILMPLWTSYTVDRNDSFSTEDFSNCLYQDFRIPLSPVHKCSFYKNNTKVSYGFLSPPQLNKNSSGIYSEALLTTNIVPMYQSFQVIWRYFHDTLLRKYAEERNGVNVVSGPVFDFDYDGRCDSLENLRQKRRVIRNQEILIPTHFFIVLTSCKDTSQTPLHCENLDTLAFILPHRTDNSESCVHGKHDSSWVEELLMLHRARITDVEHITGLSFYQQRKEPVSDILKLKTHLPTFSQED
# Procedure: Hydrolysis of the p-nitrophenyl ester of AMP (pNP-AMP), an isostere of ATP, is selectively catalyzed by ENPP1 in the supernatant of MDA-MB-231 cell cultures. Inhibition of the hydrolysis of pNP-AMP by MDA-MB-231 at pH 7.4 and 37° C., is a good model of physiologically relevant activity of membrane-bound ENPP1 at disease-relevant expression levels.
# MDA-MB-231 cells were harvested using TypLE Express Enzyme digestion and suspended in 100 μL of Leibovitz's L-15 Medium, 20% FBS, seeding the cells in a 96-well assay plate with 4.5×10^4 cells/well. Cells were incubated at 37° C. with 1% CO2 for 24 h. In a separate dilution plate, 2× of top dose of compound was prepared in phenol-red free 1640 medium without FBS and then 1:3 serial diluted in the same medium. The cell culture medium of L15 medium was aspirated carefully and cells were washed with PBS once, and 50 μL per well of test compound or DMSO blank were added to the assay plate. Substrate mix (50 μL; 0.5 mM pNP-AMP in phenol-red free 1640 media without FBS) was added for a pNP-AMP final concentration of 0.25 mM. The system was incubated at 37° C. for 3 h.
# [2] = read-out: Assay 3 (KI, app), apparent KI from IC50 via Cheng/Prusoff, pNP-AMP […], MDA-MB-231 cells, pH 7.4, 37° C., 3 h, unit inferred
# Chain of ENPP-1 ECD (P22413 98-925): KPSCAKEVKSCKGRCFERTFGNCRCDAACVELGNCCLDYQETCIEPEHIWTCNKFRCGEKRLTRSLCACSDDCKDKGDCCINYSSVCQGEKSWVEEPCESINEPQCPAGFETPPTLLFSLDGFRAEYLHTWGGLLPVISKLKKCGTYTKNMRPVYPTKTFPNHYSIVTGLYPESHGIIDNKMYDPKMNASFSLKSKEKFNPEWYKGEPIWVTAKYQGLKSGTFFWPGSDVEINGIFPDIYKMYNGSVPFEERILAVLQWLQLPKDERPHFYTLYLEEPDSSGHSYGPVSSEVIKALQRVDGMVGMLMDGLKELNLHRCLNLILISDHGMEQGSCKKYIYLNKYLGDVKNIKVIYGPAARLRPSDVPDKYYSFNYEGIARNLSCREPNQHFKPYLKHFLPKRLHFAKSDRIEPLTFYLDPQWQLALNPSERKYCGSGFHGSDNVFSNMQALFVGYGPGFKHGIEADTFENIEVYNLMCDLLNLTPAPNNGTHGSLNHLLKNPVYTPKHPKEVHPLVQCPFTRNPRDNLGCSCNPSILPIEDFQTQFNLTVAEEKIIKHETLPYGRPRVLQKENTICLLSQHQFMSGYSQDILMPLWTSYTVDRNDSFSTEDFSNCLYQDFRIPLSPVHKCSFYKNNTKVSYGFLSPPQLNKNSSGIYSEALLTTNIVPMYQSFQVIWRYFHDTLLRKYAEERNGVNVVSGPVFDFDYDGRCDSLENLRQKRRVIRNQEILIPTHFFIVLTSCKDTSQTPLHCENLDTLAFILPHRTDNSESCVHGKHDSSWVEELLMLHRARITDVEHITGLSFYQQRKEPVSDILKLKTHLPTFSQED
SMILES,Ki (ENPP-1 ECD; Assay 2 (KI)) [nM],pKi [1],pKi (ENPP-1 ECD; Assay 2 (KI)),Ki (ENPP-1 ECD; read-out: Assay 2 (KI)) [nM],"pKi [1, 2]",pKi (ENPP-1 ECD; read-out: Assay 2 (KI))
"COc1cccc2c(N3CCC(O)(CS(=N)(=O)C4CC4)CC3)ncnc12 (stereo not drawn) [Compound 193, cyclopropyl({[4-hydroxy-1-(8-methoxyquinazolin-4-yl)piperidin-4-yl]methyl})imino-λ^6-sulfanone]",0.023,9.21,–,–,–,–
"COc1cccc2c(N3CCC(CS(C)(=N)=O)CC3)c(C#N)c(C)nc12 (stereo not drawn) [Compound 201, 4-(4-{[imino(methyl)oxo-λ^6-sulfanyl]methyl}piperidin-1-yl)-8-methoxy-2-methylquinoline-3-carbonitrile]",0.69,7.92,–,–,–,–
"COc1cc2ncnc(N3CCC4(CC3)CCN(S(=N)(=O)C3CC3)C4)c2cc1OC (stereo not drawn) [Compound 160, {cyclopropyl[8-(6,7-dimethoxyquinazolin-4-yl)-2,8-diazaspiro[4.5]decan-2-yl]imino-λ^6-sulfanyl}one]",0.021,9.35,> 8.52,–,–,–
"COc1cccc2c(N3CCC(CS(=N)(=O)C4CC4)CC3)c(C#N)cnc12 (stereo not drawn) [Compound 189, 4-(4-{[cyclopropyl(imino)oxo-λ^6-sulfanyl]methyl}piperidin-1-yl)-8-methoxyquinoline-3-carbonitrile]",0.033,9.35,–,–,–,–
"COc1ccc2c(OCc3cc(F)cc(S(C)(=N)=O)c3)ccnc2c1 (stereo not drawn) [Compound 177, (3-fluoro-5-{[(7-methoxyquinolin-4-yl)oxy]methyl}phenyl)(imino)methyl-λ^6-sulfanone]",0.03,8.82,–,–,–,–
"COc1cccc2c(N3CC4(CCN(S(C)(=N)=O)C4)C3)c(C#N)cnc12 (stereo not drawn) [Compound 222, 4-{6-[imino(methyl)oxo-λ^6-sulfanyl]-2,6-diazaspiro[3.4]octan-2-yl}-8-methoxyquinoline-3-carbonitrile]",0.07,8.96,–,–,–,–
"COc1cccc2c(N3CCC4(CC3)CN(S(C)(=N)=O)C4)ncnc12 (stereo not drawn) [Compound 236, imino[7-(8-methoxyquinazolin-4-yl)-2,7-diazaspiro[3.5]nonan-2-yl]methyl-λ^6-sulfanone]",86,< 6.24,–,–,–,–
COc1cccc2c(N3CCC4(C3)CN([S@](C)(=N)=O)C4)ncnc12 [Compound 223a],–,–,–,0.047,8.51,–
"COc1cc2nnc(C)c(N3CCC4(CC3)CCN(S(C)(=N)=O)C4)c2cc1OC (stereo not drawn) [Compound 228, [8-(6,7-dimethoxy-3-methylcinnolin-4-yl)-2,8-diazaspiro[4.5]decan-2-yl](imino)methyl-λ^6-sulfanone]",0.25,8.06,–,–,–,–
COc1cccc2c(N3CCC(C[S@](C)(=N)=O)CC3)c(C#N)cnc12 [Compound 179b],–,–,–,0.014,9.20,–
"COc1cc2nncc(N3CC4(CC(CS(C)(=N)=O)C4)C3)c2cc1OC (stereo not drawn) [Compound 188, {[2-(6,7-dimethoxycinnolin-4-yl)-2-azaspiro[3.3]heptan-6-yl]methyl}(imino)methyl-λ^6-sulfanone]",0.074,8.19,–,–,–,–
"COc1cc2nccc(N3CCC4(CC3)CCN(S(C)(=N)=O)C4)c2cc1Cl (stereo not drawn) [Compound 156, [8-(6-chloro-7-methoxyquinolin-4-yl)-2,8-diazaspiro[4.5]decan-2-yl](imino)methyl-λ^6-sulfanone]",0.03,8.39,> 8.52,–,–,–
COc1cc2ncnc(N3CCC(CN[S@@](C)(=N)=O)CC3)c2cc1OC [Compound 94a],–,–,–,0.78,7.34,> 8.52
"COc1cccc2c(N3CCC(CS(C)(=N)=O)CC3)ncnc12 (stereo not drawn) [Compound 146, imino({[1-(8-methoxyquinazolin-4-yl)piperidin-4-yl]methyl})methyl-λ^6-sulfanone]",0.36,7.82,> 8.52,–,–,–
COc1cccc2c(N3CCC(O)(C[S@@](C)(=N)=O)CC3)ncnc12 [Compound 185a],–,–,–,0.013,9.49,–
"COc1cc2ncnc(N3CCC4(CC3)CCN(S(C)(=N)=O)C4)c2cc1F (stereo not drawn) [Compound 224, [8-(6-fluoro-7-methoxyquinazolin-4-yl)-2,8-diazaspiro[4.5]decan-2-yl](imino)methyl-λ^6-sulfanone]",0.019,8.96,–,–,–,–
"COc1cccc2c(N3CCC4(C3)CN(S(C)(=N)=O)C4)ncnc12 (stereo not drawn) [Compound 223, imino[6-(8-methoxyquinazolin-4-yl)-2,6-diazaspiro[3.4]octan-2-yl]methyl-λ^6-sulfanone]",0.11,8.49,–,–,–,–
"COc1cc2ncnc(N3CCC4(CC3)CCN(S(C)(=N)=O)C4)c2cc1Cl (stereo not drawn) [Compound 212, [8-(6-chloro-7-methoxyquinazolin-4-yl)-2,8-diazaspiro[4.5]decan-2-yl](imino)methyl-λ^6-sulfanone]",0.047,8.36,–,–,–,–
"COc1cc2ncnc(N3CCC4(CCN(S(C)(=N)=O)CC4)C3)c2cc1OC (stereo not drawn) [Compound 207, [2-(6,7-dimethoxyquinazolin-4-yl)-2,8-diazaspiro[4.5]decan-8-yl](imino)methyl-λ^6-sulfanone]",0.037,8.48,–,–,–,–

SMILES,Ki (ENPP-1 ECD; Assay 2 (KI)) [nM],pKi [1],pKi (ENPP-1 ECD; Assay 2 (KI)),Ki (ENPP-1 ECD; read-out: Assay 2 (KI)) [nM],"pKi [1, 2]",pKi (ENPP-1 ECD; read-out: Assay 2 (KI))
"COc1cc2ncc(F)c(N3CCC4(CC3)CCN(S(C)(=N)=O)C4)c2cc1OC (stereo not drawn) [Compound 227, [8-(3-fluoro-6,7-dimethoxyquinolin-4-yl)-2,8-diazaspiro[4.5]decan-2-yl](imino)methyl-λ^6-sulfanone]",0.018,9.29,–,–,–,–
"COc1cccc2c(N3CC[C@@H](CS(C)(=N)=O)C3)ncnc12 (stereo partly drawn) [Compound 239, imino({[(3R)-1-(8-methoxyquinazolin-4-yl)pyrrolidin-3-yl]methyl})methyl-λ^6-sulfanone]",0.81,7.82,–,–,–,–
"COc1cccc2c(N3CCC(O)(CS(C)(=N)=O)CC3)c(C#N)cnc12 (stereo not drawn) [Compound 198, 4-(4-hydroxy-4-{[imino(methyl)oxo-λ^6-sulfanyl]methyl}piperidin-1-yl)-8-methoxyquinoline-3-carbonitrile]",0.014,9.70,–,–,–,–
COc1cc2ncnc(N3CC4(CC(CS(C)(=N)=O)C4)C3)c2cc1OC (stereo not drawn) [Compound 237],0.028,8.92,–,–,–,–
COc1cc2nccc(OC[C@@H]3CCN([S@](C)(=N)=O)C3)c2cc1F [Compound 229b],–,–,–,0.37,8.44,–
"CS(=N)(=O)CC1CCN(c2c(C#N)cnc3c(OCF)cccc23)CC1 (stereo not drawn) [Compound 200, 8-(fluoromethoxy)-4-(4-{[imino(methyl)oxo-λ^6-sulfanyl]methyl}piperidin-1-yl)quinoline-3-carbonitrile]",0.019,9.39,–,–,–,–
COc1cccc2c(N3CC4(CCN([S@@](C)(=N)=O)C4)C3)c(C#N)cnc12 [Compound 222a],–,–,–,0.034,8.92,–
"COc1cc2ncnc(N3CCC4(CCC(S(C)(=N)=O)C4)CC3)c2cc1OC (stereo not drawn) [Compound 181, [8-(6,7-dimethoxyquinazolin-4-yl)-8-azaspiro[4.5]decan-2-yl](imino)methyl-λ^6-sulfanone]",0.16,7.55,–,–,–,–
COc1cc2ncnc(N3CC4(CC(C[S@](C)(=N)=O)C4)C3)c2cc1OC [Compound 237b],–,–,–,0.005,9.77,–
"COc1ccc2c(Oc3ccc(S(=N)(=O)CC(C)(C)O)cc3)ccnc2c1 (stereo not drawn) [Compound 132, (2-hydroxy-2-methylpropyl)(imino){4-[(7-methoxyquinolin-4-yl)oxy]phenyl}-λ^6-sulfanone]",1.1,7.35,> 8.52,–,–,–
COc1cccc2c(N3CC[C@@H](C[S@](C)(=N)=O)C3)ncnc12 [Compound 239a],–,–,–,0.43,8.27,–
"COc1cccc2c(N3CCC(O)(CS(C)(=N)=O)CC3)nc(C)nc12 (stereo not drawn) [Compound 199, {[4-hydroxy-1-(8-methoxy-2-methylquinazolin-4-yl)piperidin-4-yl]methyl}(imino)methyl-λ^6-sulfanone]",0.43,8.06,–,–,–,–
"COc1cccc2c(N3CC4(CCN(S(C)(=N)=O)C4)C3)ncnc12 (stereo not drawn) [Compound 217, imino[2-(8-methoxyquinazolin-4-yl)-2,6-diazaspiro[3.4]octan-6-yl]methyl-λ^6-sulfanone]",0.29,8.10,–,–,–,–
"COc1cccc2c(N3CCC(CS(C)(=N)=O)CC3)c(C#N)cnc12 (stereo not drawn) [Compound 179, 4-(4-{[imino(methyl)oxo-λ^6-sulfanyl]methyl}piperidin-1-yl)-8-methoxyquinoline-3-carbonitrile]",0.048,8.48,–,–,–,–
"COc1cc2nccc(N3CCC4(CC3)CCN(S(C)(=N)=O)C4)c2cc1OC (stereo not drawn) [Compound 208, [8-(6,7-dimethoxyquinolin-4-yl)-2,8-diazaspiro[4.5]decan-2-yl](imino)methyl-λ^6-sulfanone]",0.021,9.68,–,–,–,–
"COc1cccc2c(N3CCC(O)(CS(=N)(=O)C4CCC4)CC3)ncnc12 (stereo not drawn) [Compound 191, cyclobutyl({[4-hydroxy-1-(8-methoxyquinazolin-4-yl)piperidin-4-yl]methyl})imino-λ^6-sulfanone]",0.34,7.82,–,–,–,–
"CCOc1cccc2c(N3CCC(CS(C)(=N)=O)CC3)c(C#N)cnc12 (stereo not drawn) [Compound 197, 8-ethoxy-4-(4-{[imino(methyl)oxo-λ^6-sulfanyl]methyl}piperidin-1-yl)quinoline-3-carbonitrile]",0.04,8.64,–,–,–,–
COc1cc2nccc(N3CCC4(CC3)CCN([S@@](C)(=N)=O)C4)c2cc1F [Compound 205b],–,–,–,0.0057,9.92,–
"COc1cccc2c(N3CCC(O)(CS(C)(=N)=O)CC3)ncnc12 (stereo not drawn) [Compound 185, {[4-hydroxy-1-(8-methoxyquinazolin-4-yl)piperidin-4-yl]methyl}(imino)methyl-λ^6-sulfanone]",0.028,9.35,–,–,–,–
